In paper PMC7686313, “Phase 1 study of mTORC1/2 inhibitor sapanisertib (TAK-228) in advanced solid tumours, with an expansion phase in renal, endometrial or bladder cancer” (British Journal of Cancer, 2020):

Assay: Safety (adverse events, NCI CTCAE v4.0), expansion phase
Source text: Based on data collected during dose-escalation, the expansion phase evaluated the safety and efficacy of QD and QW sapanisertib in patients with RCC, endometrial or bladder cancer. Patients could continue receiving sapanisertib for ≤1 year (or beyond, if the investigator and sponsor agreed) in the absence of disease progression or unacceptable toxicity.
Patients who received ≥1 dose of sapanisertib were included in the safety population. The response-evaluable population included patients who received ≥1 dose of sapanisertib, had measurable disease at baseline, and had ≥1 postbaseline assessment. […] Adverse events (AEs) were assessed using the National Cancer Institute Common Terminology Criteria for Adverse Events, v4.0. Patients were provided with a home blood-glucose meter to monitor their fasting predose blood-glucose measurements to assess hyperglycaemia as an on-target AE and PD marker.

CC(C)n1nc(-c2ccc3oc(N)nc3c2)c2c(N)ncnc21 [Sapanisertib]
8 (21) n (%): Pyrexia, all-grade AE of any cause (expansion QD 5 mg)
30 (77) n (%): Any grade ≥3 AE (expansion QD 5 mg)
9 (23) n (%): Cough, all-grade AE of any cause (expansion QD 5 mg) | Dizziness, all-grade AE of any cause (expansion QD 5 mg) | Oedema peripheral, all-grade AE of any cause (expansion QD 5 mg)
8 (47) n (%): Any AE resulting in dose modification/interruption (expansion QW 30 mg) | Constipation, all-grade AE of any cause (expansion QW 30 mg) | Diarrhoea, all-grade AE of any cause (expansion QW 30 mg) | Stomatitis (includes oropharyngeal pain and mucosal inflammation), treatment-related AE (expansion QW 30 mg)
9 (53) n (%): Any grade ≥3 AE (expansion QW 30 mg) | Stomatitis, all-grade AE of any cause (expansion QW 30 mg)
2 (5) n (%): Acute kidney injury, grade ≥3 AE of any cause (expansion QD 5 mg) | Acute kidney injury, treatment-related AE (expansion QD 5 mg) | Anaemia, treatment-related AE (expansion QD 5 mg) | Arthralgia, all-grade AE of any cause (expansion QD 5 mg) | Dehydration, treatment-related AE (expansion QD 5 mg) | Diarrhoea, grade ≥3 AE of any cause (expansion QD 5 mg) | Diarrhoea, treatment-related grade ≥3 AE (expansion QD 5 mg) | Dyspnoea, grade ≥3 AE of any cause (expansion QD 5 mg) | Haematuria, grade ≥3 AE of any cause (expansion QD 5 mg) | Hyperkalaemia, grade ≥3 AE of any cause (expansion QD 5 mg) | Pneumonia, grade ≥3 AE of any cause (expansion QD 5 mg) | Thrombocytopenia, grade ≥3 AE of any cause (expansion QD 5 mg) | Thrombocytopenia, treatment-related grade ≥3 AE (expansion QD 5 mg)
5 (29) n (%): Cough, all-grade AE of any cause (expansion QW 30 mg) | Diarrhoea, treatment-related AE (expansion QW 30 mg)
6 (35) n (%): Abdominal pain, all-grade AE of any cause (expansion QW 30 mg) | Any SAE (expansion QW 30 mg) | Any treatment-related grade ≥3 AE (expansion QW 30 mg) | Decreased appetite, treatment-related AE (expansion QW 30 mg)
13 (76) n (%): Nausea, all-grade AE of any cause (expansion QW 30 mg)
39 (100) n (%): Any AE (expansion QD 5 mg) | Any treatment-related AE (expansion QD 5 mg)
10 (26) n (%): Constipation, all-grade AE of any cause (expansion QD 5 mg) | Dysgeusia, all-grade AE of any cause (expansion QD 5 mg) | Dysgeusia, treatment-related AE (expansion QD 5 mg) | Pruritus, all-grade AE of any cause (expansion QD 5 mg)
2 (12) n (%): Anaemia, all-grade AE of any cause (expansion QW 30 mg) | Anaemia, treatment-related AE (expansion QW 30 mg) | Arthralgia, all-grade AE of any cause (expansion QW 30 mg) | Dehydration, treatment-related AE (expansion QW 30 mg) | Fatigue, grade ≥3 AE of any cause (expansion QW 30 mg) | Fatigue, treatment-related grade ≥3 AE (expansion QW 30 mg) | Headache, all-grade AE of any cause (expansion QW 30 mg) | Hyperglycaemia, grade ≥3 AE of any cause (expansion QW 30 mg) | Hyperglycaemia, treatment-related grade ≥3 AE (expansion QW 30 mg) | Hypophosphatemia, grade ≥3 AE of any cause (expansion QW 30 mg) | Hypophosphatemia, treatment-related AE (expansion QW 30 mg) | Nausea, grade ≥3 AE of any cause (expansion QW 30 mg) | On-study deaths (expansion QW 30 mg) | Pain in extremity, grade ≥3 AE of any cause (expansion QW 30 mg) | Pruritus generalised, treatment-related AE (expansion QW 30 mg) | Rash maculo-papular, treatment-related AE (expansion QW 30 mg) | Weight decreased, all-grade AE of any cause (expansion QW 30 mg)
6 (15) n (%): Anaemia, all-grade AE of any cause (expansion QD 5 mg) | Dehydration, all-grade AE of any cause (expansion QD 5 mg) | Urinary tract infection, all-grade AE of any cause (expansion QD 5 mg) | Weight decreased, all-grade AE of any cause (expansion QD 5 mg)
0 (0) n (%): Constipation, grade ≥3 AE of any cause (expansion QD 5 mg) | Dehydration, grade ≥3 AE of any cause (expansion QD 5 mg) | Dehydration, treatment-related grade ≥3 AE (expansion QD 5 mg) | Headache, treatment-related AE (expansion QD 5 mg) | Hypercholesterolemia, treatment-related AE (expansion QD 5 mg) | Lymphopenia, treatment-related grade ≥3 AE (expansion QD 5 mg) | Pain in extremity, grade ≥3 AE of any cause (expansion QD 5 mg) | Rash, treatment-related grade ≥3 AE (expansion QD 5 mg) | Transitional cell carcinoma, grade ≥3 AE of any cause (expansion QD 5 mg) | Abdominal pain, grade ≥3 AE of any cause (expansion QW 30 mg) | Acute kidney injury, grade ≥3 AE of any cause (expansion QW 30 mg) | Acute kidney injury, treatment-related AE (expansion QW 30 mg) | Asthenia, grade ≥3 AE of any cause (expansion QW 30 mg) | Asthenia, treatment-related grade ≥3 AE (expansion QW 30 mg) | Dehydration, grade ≥3 AE of any cause (expansion QW 30 mg) | Dehydration, treatment-related grade ≥3 AE (expansion QW 30 mg) | Diarrhoea, grade ≥3 AE of any cause (expansion QW 30 mg) | Diarrhoea, treatment-related grade ≥3 AE (expansion QW 30 mg) | Dizziness, all-grade AE of any cause (expansion QW 30 mg) | Dyspnoea, grade ≥3 AE of any cause (expansion QW 30 mg) | Haematuria, grade ≥3 AE of any cause (expansion QW 30 mg) | Headache, treatment-related AE (expansion QW 30 mg) | Hyperkalaemia, grade ≥3 AE of any cause (expansion QW 30 mg) | Hypertension, grade ≥3 AE of any cause (expansion QW 30 mg) | Lymphopenia, grade ≥3 AE of any cause (expansion QW 30 mg) | Lymphopenia, treatment-related grade ≥3 AE (expansion QW 30 mg) | Musculoskeletal chest pain, grade ≥3 AE of any cause (expansion QW 30 mg) | Pneumonia, grade ≥3 AE of any cause (expansion QW 30 mg) | Pruritus generalised, treatment-related grade ≥3 AE (expansion QW 30 mg) | Rash maculo-papular, grade ≥3 AE of any cause (expansion QW 30 mg) | Rash maculo-papular, treatment-related grade ≥3 AE (expansion QW 30 mg) | Rash, treatment-related AE (expansion QW 30 mg) | Rash, treatment-related grade ≥3 AE (expansion QW 30 mg) | Stomatitis, grade ≥3 AE of any cause (expansion QW 30 mg) | Stomatitis, treatment-related grade ≥3 AE (expansion QW 30 mg) | Weight decreased, treatment-related AE (expansion QW 30 mg)
4 (10) n (%): Fatigue, treatment-related grade ≥3 AE (expansion QD 5 mg) | Headache, all-grade AE of any cause (expansion QD 5 mg) | Hypophosphatemia, grade ≥3 AE of any cause (expansion QD 5 mg)
5 (13) n (%): Any treatment-related SAE (expansion QD 5 mg) | Blood creatinine increased, all-grade AE of any cause (expansion QD 5 mg) | Dry mouth, all-grade AE of any cause (expansion QD 5 mg) | Fatigue, grade ≥3 AE of any cause (expansion QD 5 mg) | Hyperglycaemia, grade ≥3 AE of any cause (expansion QD 5 mg) | Hyperglycaemia, treatment-related grade ≥3 AE (expansion QD 5 mg) | Weight decreased, treatment-related AE (expansion QD 5 mg)
11 (65) n (%): Fatigue, all-grade AE of any cause (expansion QW 30 mg) | Fatigue, treatment-related AE (expansion QW 30 mg) | Nausea, treatment-related AE (expansion QW 30 mg)
12 (71) n (%): Hyperglycaemia, all-grade AE of any cause (expansion QW 30 mg) | Hyperglycaemia, treatment-related AE (expansion QW 30 mg)
14 (36) n (%): Rash maculo-papular, treatment-related AE (expansion QD 5 mg)
13 (33) n (%): Vomiting, all-grade AE of any cause (expansion QD 5 mg)
4 (24) n (%): Blood creatinine increased, all-grade AE of any cause (expansion QW 30 mg) | Dehydration, all-grade AE of any cause (expansion QW 30 mg) | Depression, all-grade AE of any cause (expansion QW 30 mg) | Dysgeusia, all-grade AE of any cause (expansion QW 30 mg) | Pruritus generalised, all-grade AE of any cause (expansion QW 30 mg)
11 (28) n (%): Pruritus generalised, treatment-related AE (expansion QD 5 mg)
22 (56) n (%): Fatigue, treatment-related AE (expansion QD 5 mg)
3 (8) n (%): Abdominal pain, grade ≥3 AE of any cause (expansion QD 5 mg) | Blood creatinine increased, treatment-related AE (expansion QD 5 mg) | Dry mouth, treatment-related AE (expansion QD 5 mg) | Hypophosphatemia, treatment-related AE (expansion QD 5 mg) | Hypophosphatemia, treatment-related grade ≥3 AE (expansion QD 5 mg) | Oropharyngeal pain, all-grade AE of any cause (expansion QD 5 mg) | Rash maculo-papular, grade ≥3 AE of any cause (expansion QD 5 mg) | Rash maculo-papular, treatment-related grade ≥3 AE (expansion QD 5 mg) | Stomatitis, grade ≥3 AE of any cause (expansion QD 5 mg) | Stomatitis, treatment-related grade ≥3 AE (expansion QD 5 mg)
17 (44) n (%): Decreased appetite, treatment-related AE (expansion QD 5 mg) | Diarrhoea, treatment-related AE (expansion QD 5 mg) | Hyperglycaemia, treatment-related AE (expansion QD 5 mg) | Rash maculo-papular, all-grade AE of any cause (expansion QD 5 mg)
7 (41) n (%): Decreased appetite, all-grade AE of any cause (expansion QW 30 mg)
1 (6) n (%): Anaemia, grade ≥3 AE of any cause (expansion QW 30 mg) | Asthenia, treatment-related AE (expansion QW 30 mg) | Blood creatinine increased, treatment-related AE (expansion QW 30 mg) | Constipation, grade ≥3 AE of any cause (expansion QW 30 mg) | Dry mouth, treatment-related AE (expansion QW 30 mg) | Hypercholesterolemia, treatment-related AE (expansion QW 30 mg) | Hypokalaemia, grade ≥3 AE of any cause (expansion QW 30 mg) | Hyponatremia, grade ≥3 AE of any cause (expansion QW 30 mg) | Hypophosphatemia, treatment-related grade ≥3 AE (expansion QW 30 mg) | Nausea, treatment-related grade ≥3 AE (expansion QW 30 mg) | Oedema peripheral, all-grade AE of any cause (expansion QW 30 mg) | Oropharyngeal pain, all-grade AE of any cause (expansion QW 30 mg) | Pruritus, all-grade AE of any cause (expansion QW 30 mg) | Pruritus, treatment-related AE (expansion QW 30 mg) | Pyrexia, all-grade AE of any cause (expansion QW 30 mg) | Sepsis, grade ≥3 AE of any cause (expansion QW 30 mg) | Thrombocytopenia, grade ≥3 AE of any cause (expansion QW 30 mg) | Thrombocytopenia, treatment-related grade ≥3 AE (expansion QW 30 mg) | Transitional cell carcinoma, grade ≥3 AE of any cause (expansion QW 30 mg) | Urinary tract infection, all-grade AE of any cause (expansion QW 30 mg) | Vomiting, grade ≥3 AE of any cause (expansion QW 30 mg)
12 (31) n (%): Pruritus generalised, all-grade AE of any cause (expansion QD 5 mg) | Vomiting, treatment-related AE (expansion QD 5 mg)
27 (69) n (%): Any AE resulting in dose modification/interruption (expansion QD 5 mg)
10 (59) n (%): Vomiting, all-grade AE of any cause (expansion QW 30 mg) | Vomiting, treatment-related AE (expansion QW 30 mg)
25 (64) n (%): Fatigue, all-grade AE of any cause (expansion QD 5 mg)
19 (49) n (%): Any SAE (expansion QD 5 mg) | Stomatitis (includes oropharyngeal pain and mucosal inflammation), treatment-related AE (expansion QD 5 mg) | Stomatitis, all-grade AE of any cause (expansion QD 5 mg)
3 (18) n (%): Any AE resulting in treatment discontinuation (expansion QW 30 mg) | Any treatment-related SAE (expansion QW 30 mg) | Dry mouth, all-grade AE of any cause (expansion QW 30 mg) | Dysgeusia, treatment-related AE (expansion QW 30 mg) | Dyspepsia, treatment-related AE (expansion QW 30 mg) | Rash maculo-papular, all-grade AE of any cause (expansion QW 30 mg)
17 (100) n (%): Any AE (expansion QW 30 mg) | Any treatment-related AE (expansion QW 30 mg)
0 n (%): On-study deaths (expansion QD 5 mg)
21 (54) n (%): Nausea, all-grade AE of any cause (expansion QD 5 mg)
1 (3) n (%): Anaemia, grade ≥3 AE of any cause (expansion QD 5 mg) | Asthenia, grade ≥3 AE of any cause (expansion QD 5 mg) | Asthenia, treatment-related grade ≥3 AE (expansion QD 5 mg) | Depression, all-grade AE of any cause (expansion QD 5 mg) | Dyspepsia, treatment-related AE (expansion QD 5 mg) | Hypertension, grade ≥3 AE of any cause (expansion QD 5 mg) | Hypokalaemia, grade ≥3 AE of any cause (expansion QD 5 mg) | Hyponatremia, grade ≥3 AE of any cause (expansion QD 5 mg) | Lymphopenia, grade ≥3 AE of any cause (expansion QD 5 mg) | Musculoskeletal chest pain, grade ≥3 AE of any cause (expansion QD 5 mg) | Nausea, grade ≥3 AE of any cause (expansion QD 5 mg) | Nausea, treatment-related grade ≥3 AE (expansion QD 5 mg) | Pruritus generalised, treatment-related grade ≥3 AE (expansion QD 5 mg) | Rash, treatment-related AE (expansion QD 5 mg) | Sepsis, grade ≥3 AE of any cause (expansion QD 5 mg) | Vomiting, grade ≥3 AE of any cause (expansion QD 5 mg)
18 (46) n (%): Any treatment-related grade ≥3 AE (expansion QD 5 mg) | Hyperglycaemia, all-grade AE of any cause (expansion QD 5 mg)
7 (18) n (%): Abdominal pain, all-grade AE of any cause (expansion QD 5 mg) | Any AE resulting in treatment discontinuation (expansion QD 5 mg) | Asthenia, treatment-related AE (expansion QD 5 mg) | Pruritus, treatment-related AE (expansion QD 5 mg)
20 (51) n (%): Decreased appetite, all-grade AE of any cause (expansion QD 5 mg) | Diarrhoea, all-grade AE of any cause (expansion QD 5 mg) | Nausea, treatment-related AE (expansion QD 5 mg)
